Patent EP0018189B1 (priority 1979, dated 1980)

What was measured:
[1] = system: poliomyelitis vaccines (Types 1, 2 and 3): Type 1; design: species or system guinea pigs; conditions: guinea pig, in vivo
[2] = system: poliomyelitis vaccines (Types 1, 2 and 3): Type 2; assay type: in vivo; conditions: guinea pigs
[3] = system: poliomyelitis vaccines (Types 1, 2 and 3): Type 3; assay type: in vivo; conditions: guinea pigs
[4] = undiluted, 1/10 and 1/100 dilutions, determined by comparison of ED50

## CCCCCCCCCCCCCCCCCCOC(=O)[C@@H](N)Cc1ccc(O)cc1 [octadecyl tyrosine]
[1]
  Potency Relative to Unadsorbed Vaccine, Type 1: 13.8
  factor more potent than the vaccine containing aluminum phosphate, type 1: 5.2
[2]
  factor more potent than the vaccine containing aluminum phosphate, type 2: 1.9
[2]; [4]
  Potency Relative to Unadsorbed Vaccine, Type 2: 3.2
[3]
  factor more potent than the vaccine containing aluminum phosphate, type 3: 1.4
[3]; [4]
  Potency Relative to Unadsorbed Vaccine, Type 3: 8.5
